Results: PubChem BioAssay AID1645865 (Buhrlage Lab, Dana-Farber Cancer Institute and Novartis …, 2021)
Calls of active or inactive are those of the source.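 The calls were made as follows: active = maximal inhibition of the USP30 enzyme reaching 30% or more across the dose series; inactive = the rest.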

molecular target: Ubiquitin carboxyl-terminal hydrolase 30 (Homo sapiens) (UniProt Q70CQ3); assay: inhibitors of ubiquitin-specific protease 30 deubiquitylating enzyme, concentration dependence, in vitro biochemical, validation of primary hits (AID 1645865); conditions: purified USP30, Ub-rhodamine cleavage, fluorescence, 2 h
Sequence (Q70CQ3 whole entry, looked up): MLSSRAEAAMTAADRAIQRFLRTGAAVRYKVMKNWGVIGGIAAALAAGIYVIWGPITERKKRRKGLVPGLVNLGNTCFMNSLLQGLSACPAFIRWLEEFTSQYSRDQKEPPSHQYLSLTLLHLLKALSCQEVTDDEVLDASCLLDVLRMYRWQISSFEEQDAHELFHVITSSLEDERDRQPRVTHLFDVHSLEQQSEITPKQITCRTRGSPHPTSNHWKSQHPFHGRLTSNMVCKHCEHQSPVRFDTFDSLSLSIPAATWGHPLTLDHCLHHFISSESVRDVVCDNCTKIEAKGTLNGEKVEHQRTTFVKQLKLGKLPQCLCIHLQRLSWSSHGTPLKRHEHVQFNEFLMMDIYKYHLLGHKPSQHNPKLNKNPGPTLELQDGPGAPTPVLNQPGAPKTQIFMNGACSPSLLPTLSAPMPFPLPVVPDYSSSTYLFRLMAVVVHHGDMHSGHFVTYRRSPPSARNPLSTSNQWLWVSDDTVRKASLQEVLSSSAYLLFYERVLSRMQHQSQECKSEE

IC50 | Structure (SMILES)
42.8 µM | CNc1nc2c(c(=O)n1Cc1ccccc1)CN(C(=O)c1ccc(CN)cc1)CC2
1.63 µM | CCC(C)c1ccc(-c2csc(Cn3c(CN4CCN(C)CC4)nc4ccccc4c3=O)n2)cc1 (centres undefined)
> 50 µM (inactive) | COc1ccccc1CNC(=O)c1c(O)c2cnn(-c3cccc(C)c3)c2[nH]c1=O
> 50 µM (inactive) | O=C(Cc1noc2ccccc12)N1CCN(c2ccc([N+](=O)[O-])cc2)CC1
> 50 µM (inactive) | Cc1cc(C#N)c2c(C)ccc(C(C)C)cc1-2
> 50 µM (inactive) | O=c1[nH]cccc1NS(=O)(=O)c1ccc(F)cc1
16.6 µM | C=C1CCC2[C@](C)(CCC[C@]2(C)C(=O)OC)[C@H]1CCc1ccoc1C[N+](C)(C)Cc1ccccc1 (some centres undefined)
> 50 µM (inactive) | COc1ccccc1-c1nc2c3c(C)c(C)n(Cc4cccnc4)c3ncn2n1
14.5 µM | Cc1cccc(CNC(=O)C2CCCN(S(=O)(=O)Cc3ccc(F)cc3)C2)c1 (centres undefined)
> 50 µM (inactive) | Cc1ccc2nc(N3CCc4ccccc4C3)c3nncn3c2c1
33.1 µM | COc1ccc(CN2CCCC23CCCN(C(=O)CCc2cccnc2)C3)cc1F (centres undefined)
15.8 µM | COc1ccc(C(=O)NCCc2nnc3ccc(SCC(=O)NCc4ccc(F)cc4)nn23)cc1
2.67 µM | COc1cc(Cn2cnc3c([nH]c4ccc(Br)cc43)c2=O)cc(OC)c1
0.465 µM | CCOc1ccc(NC(=O)Cn2c(=O)n(CC(=O)NCc3ccc(C)cc3)c(=O)c3sccc32)cc1
> 50 µM (inactive) | O=[N+]([O-])c1cccc(CSc2nnc(/C=C/c3ccccc3)o2)c1
> 50 µM (inactive) | CC(C)c1nc2sc3c(NCc4ccco4)ncnc3c2c2c1CCC2
49.6 µM | O=C(CSc1nc2cc(S(=O)(=O)Nc3ccccc3Cl)ccc2o1)Nc1ccc(N2CCOCC2)cc1
27.2 µM | Cc1ccc(S(=O)(=O)N2CCC3(CC2)NC(=O)c2ccccc2N3)cc1C
> 50 µM (inactive) | CC(C(=O)NCc1ccc2c(c1)OCO2)N1CCN(c2ccc(O)cc2)CC1 (centres undefined)
3.88 µM | O=C(Nc1ccc(F)cc1)Nc1ccccc1OCc1cc(=O)n2ccccc2n1

IC50 | Structure (SMILES)
> 50 µM (inactive) | O=C(CSc1nnc2n1CCCCC2)Nc1ccc2[nH]c(=O)[nH]c2c1
1.7 µM | CCc1c(C)c(C#N)c2nc3ccccc3n2c1N1CCN(C2CCCC2)CC1
> 50 µM (inactive) | O=C(COC(=O)c1ccc(CN2CCCC2=O)cc1)c1ccc2c(c1)OCCO2
42.8 µM | N#Cc1c(N)nc2c(c1N)C(c1ccccc1)CO2 (centres undefined)
> 50 µM (inactive) | COc1ccc(C(C(=O)NCc2ccccc2)N(C(=O)CCN2CCc3ccccc32)c2ccc(C)c(C)c2)cc1 (centres undefined)
> 50 µM (inactive) | COC(=O)c1c(C)[nH]c(C(=O)C(C)OC(=O)CCC2CCCC2)c1C (centres undefined)
> 50 µM (inactive) | COc1ccccc1C(=O)N1CCC(S(=O)(=O)c2ccc(-c3ccco3)cc2)CC1
> 50 µM (inactive) | Cc1nnc(Sc2cc(C(=O)NCCN3CCCC3)c3ccccc3n2)s1
0.975 µM | CCOc1ccc(NC(=O)Cn2cc(C(=O)c3ccc(Cl)cc3)c(=O)c3cc(OC)ccc32)cc1
> 50 µM (inactive) | CCn1ccc2c(cc(C(=O)Nc3cccc(OC)c3)n2C)c1=O
0.687 µM | Cc1ccccc1NC(=O)Nc1ccccc1OCc1cc(=O)n2cccc(C)c2n1
> 50 µM (inactive) | O=S1(=O)CCN(Cc2c(F)cccc2F)c2c(F)nc(N3CCOCC3)c(F)c21
> 50 µM (inactive) | CC1Cc2ccccc2N1C(=O)Cn1c(=O)cc(O)c2ccccc21 (centres undefined)
6.79 µM | COc1ccc(CCNC(=O)c2cn(-c3ccc(F)cc3)nn2)cc1OC
20.5 µM | COc1cc(C#N)c(NC(=NCc2ccc(F)cc2)SC)cc1OC
47.7 µM | Cc1nc(-c2ccc(-n3cc(C(=O)Nc4cccc(F)c4)c(C)n3)cc2)no1
> 50 µM (inactive) | Cc1cc(O)c2c3c(c(O)cc2c1)C(=O)c1c(O)cccc1C3=O
26.7 µM | COC(=O)COc1ccc(/C=N/NC(=O)c2ccc(CN3CCc4ccccc4C3)cc2)cc1
> 50 µM (inactive) | O=C(Nc1cccc(F)c1)c1ncoc1-c1ccco1
